Assay results as given in PMC4666032, “KPT-330, a potent and selective exportin-1 (XPO-1) inhibitor, shows antitumor effects modulating the expression of cyclin D1 and survivin in prostate cancer models” (BMC Cancer, 2015).

What was measured:
Assay type in all cases: cell-based
[1] = system: PCa cell lines; assay: Growth inhibition across the PCa cell panel; conditions: Homo sapiens; 72 hours, range across the cell panel; read-out: IC50 values, range over PCa cell lines
Text: Four commercial (LnCaP, 22rv1, DU145 and PC3) and twelve non-commercial (LAPC-4 [44], CWR22, PCb2 [45], PC3Lymphnode, PC3M, PC3M-pro4 [46] and PC3M-Ln4 [47], LnCaP-104S [47], LnCaP104R1 [47], LnCaP-C81 [47], C4-2B [48], VCAP [49] and DuCaP [[49]) cell lines were selected for the in vitro experimental studies for their biological characteristics: LAPC-4 (Androgen receptor [AR] positive, androgen dependent with low Akt/mTOR activities, p53 wt); LnCaP (AR positive, androgen dependent with high Akt/mTOR activities, p53 wt); LnCaP-C81 and LnCaP-C4-2B (AR positive, androgen independent with high Akt/mTOR activities, p53 wt); 22rv1 (AR positive, androgen independent with low Akt/mTOR activities, p53 wt); PC3 (AR negative, with high Akt/mTOR activities and no p53 function (p53 del) and DU145 (AR negative, with low Akt/mTOR activities and mutant p53). PC3 and DU145 have been also transfected with AR to obtain PC3AR [50] and DU-AR [51]. Benign prostatic hyperplasia line (BPH1), and Prostatic epithelial lines (EPN and RWPE-1) were used as non-neoplastic controls. Cells were routinely cultured in appropriate medium supplemented with 10 % fetal bovine serum (FBS), 1 % pen-strep and 1 % L-glutamine (Invitrogen Corporation, Carlsbad, CA). To minimize the risk to work with misidentified and/or contaminated cell lines, DNA profiling was periodically carried out in-house to authenticate cell cultures. DNA was isolated from cell lines using a standard DNA isolation kit. […]
Cells were seeded at a density of 2 x 10^4 cells/mL in 24-well plates. […] Cells were trypsinized and resuspended in 1.0 ml of saline, then counted using a NucleoCounter™ NC-100 (automated cell counter systems, Chemotec, Gydevang, Denmark). The effect on cell proliferation was measured by taking the mean cell number with respect to controls over time for the different treatment groups.
Viable cells were counted by using the NucleoCounter™ NC-100 (automated cell counter systems, Chemotec, Cydevang, DK). Apoptosis was evaluated by using Tali® Apoptosis Kit - Annexin V Alexa Fluor® 488 & Propidium Iodide-based, (Life Technologies Italia, Monza, Italy). Stained cells were then measured on a Tali® Image-Based Cytometer. […]
(§1) Six SINE analogs KPT-127, KPT-185, KPT-205, KPT-227, KPT251 and KPT-330 sharing a trifluoromethyl phenyl triazole scaffold, were investigated for their growth inhibitory and apoptotic potential in our PCa cell panel. Therefore, the effects of these XPO1 inhibitors were evaluated on the growth of PCa cell lines performing dose- and time-dependent studies. To examine the dose-dependent effects of these compounds, we treated cells with varying doses of the compounds (0, 1, 10, 50, 100, 500 and 1000 nM) and assessed viability at 72 hours after treatment. The IC50 for each compound was then calculated. […]

[2] = system: PC3M-pro4; assay: Growth/viability assay, IC50 at 72 h; conditions: Homo sapiens; PC3M-pro4, Fig. 2g
Text: (§2) Four commercial (LnCaP, 22rv1, DU145 and PC3) and twelve non-commercial (LAPC-4 [44], CWR22, PCb2 [45], PC3Lymphnode, PC3M, PC3M-pro4 [46] and PC3M-Ln4 [47], LnCaP-104S [47], LnCaP104R1 [47], LnCaP-C81 [47], C4-2B [48], VCAP [49] and DuCaP [[49]) cell lines were selected for the in vitro experimental studies for their biological characteristics: LAPC-4 (Androgen receptor [AR] positive, androgen dependent with low Akt/mTOR activities, p53 wt); LnCaP (AR positive, androgen dependent with high Akt/mTOR activities, p53 wt); LnCaP-C81 and LnCaP-C4-2B (AR positive, androgen independent with high Akt/mTOR activities, p53 wt); 22rv1 (AR positive, androgen independent with low Akt/mTOR activities, p53 wt); PC3 (AR negative, with high Akt/mTOR activities and no p53 function (p53 del) and DU145 (AR negative, with low Akt/mTOR activities and mutant p53). PC3 and DU145 have been also transfected with AR to obtain PC3AR [50] and DU-AR [51]. Benign prostatic hyperplasia line (BPH1), and Prostatic epithelial lines (EPN and RWPE-1) were used as non-neoplastic controls. Cells were routinely cultured in appropriate medium supplemented with 10 % fetal bovine serum (FBS), 1 % pen-strep and 1 % L-glutamine (Invitrogen Corporation, Carlsbad, CA). To minimize the risk to work with misidentified and/or contaminated cell lines, DNA profiling was periodically carried out in-house to authenticate cell cultures. DNA was isolated from cell lines using a standard DNA isolation kit. STR profiling was performed by using GenePrint® 10 System (Promega Corporation, Madison, WI). An eight-capillary 3500 Genetic Analyzer (Applied Biosystems Life Technologies Europe BV, Monza, Italy) was used to separate and identify alleles using standard procedures. GenePrint® 10 System allows co-amplification and detection of […] human loci required by the guidelines ASN-0002. For non-commercial cell lines, the authentication process was carried out by comparing STR-fingerprints with those published by Adri van Bokhoven and co-workers. In addition, cell lines were stocked at very low passages and used at <15-20 subcultures.
(§3) Cells were seeded at a density of 2 x 10^4 cells/mL in 24-well plates. Cells were left to attach and grow in 5 % FCS DMEM for 24 h. After this time, cells were maintained in the appropriate culture conditions. Morphological controls were performed every day with an inverted phase-contrast photomicroscope (Nikon Diaphot, Tokyo, Japan) before cell trypsinization and counting. Cells were trypsinized and resuspended in 1.0 ml of saline, then counted using a NucleoCounter™ NC-100 (automated cell counter systems, Chemotec, Gydevang, Denmark). The effect on cell proliferation was measured by taking the mean cell number with respect to controls over time for the different treatment groups.
(§4) Viable cells were counted by using the NucleoCounter™ NC-100 (automated cell counter systems, Chemotec, Cydevang, DK). Apoptosis was evaluated by using Tali® Apoptosis Kit - Annexin V Alexa Fluor® 488 & Propidium Iodide-based, (Life Technologies Italia, Monza, Italy). Stained cells were then measured on a Tali® Image-Based Cytometer. Apoptosis was further confirmed by FACS analysis following the instructions of the manufacturer.
as §1

[3] = system: CWR22; assay: Growth/viability assay, IC50 at 72 h; conditions: Homo sapiens; CWR22, Fig. 2g
Text: as §2, §3, §4, §1

[4] = system: PCb2; assay: Growth/viability assay, IC50 at 72 h; conditions: Homo sapiens; PCb2, Fig. 2g
Text: as §2, §3, §4, §1

[5] = system: DU145; assay: Growth/viability assay, IC50 at 72 h; conditions: Homo sapiens, DU-145; DU145, Fig. 2g
Text: as §2, §3, §4, §1

[6] = system: PC3AR; assay: Growth/viability assay, IC50 at 72 h; conditions: Homo sapiens, PC3/AR, Fig. 2g
Text: as §2, §3, §4, §1

[7] = system: LAPC-4; assay: Growth/viability assay, IC50 at 72 h; conditions: Homo sapiens
Text: as §2, §3, §4, §1

[8] = system: PC3M-Ln4; assay: Growth/viability assay, IC50 at 72 h; conditions: Homo sapiens; PC3M-Ln4, Fig. 2g
Text: as §2, §3, §4, §1

[9] = system: PC3; assay: Growth/viability assay, IC50 at 72 h; conditions: Homo sapiens, PC-3
Text: as §2, §3, §4, §1

[10] = system: DuCaP; assay: Growth/viability assay, IC50 at 72 h; conditions: Homo sapiens, Fig. 2g
Text: as §2, §3, §4, §1

[11] = system: C4-2B; assay: Growth/viability assay, IC50 at 72 h; conditions: Homo sapiens, Fig. 2g
Text: as §2, §3, §4, §1

[12] = system: LnCaP-C81; assay: Growth/viability assay, IC50 at 72 h; conditions: Homo sapiens; C-81, Fig. 2g
Text: as §2, §3, §4, §1

[13] = system: LnCaP-104S; assay: Growth/viability assay, IC50 at 72 h; conditions: Homo sapiens, Fig. 2g
Text: as §2, §3, §4, §1

[14] = system: LnCaP; assay: Growth/viability assay, IC50 at 72 h; conditions: Homo sapiens
Text: as §2, §3, §4, §1

[15] = system: RWPE-1; assay: Growth/viability assay, IC50 at 72 h; conditions: Homo sapiens; RWPE-1, Fig. 2g
Text: as §2, §3, §4, §1

[16] = system: LnCaP104R1; assay: Growth/viability assay, IC50 at 72 h; conditions: Homo sapiens; 104R1, Fig. 2g
Text: as §2, §3, §4, §1

[17] = system: 22rv1; assay: Growth/viability assay, IC50 at 72 h; conditions: Homo sapiens
Text: as §2, §3, §4, §1

[18] = system: DU-AR; assay: Growth/viability assay, IC50 at 72 h; conditions: Homo sapiens, Fig. 2g
Text: as §2, §3, §4, §1

[19] = system: BPH-1; assay: Growth/viability assay, IC50 at 72 h; conditions: Homo sapiens
Text: as §2, §3, §4, §1

[20] = system: EPN; assay: Growth/viability assay, IC50 at 72 h; conditions: Homo sapiens, Fig. 2g
Text: as §2, §3, §4, §1

[21] = system: VCaP; assay: Growth/viability assay, IC50 at 72 h; conditions: Homo sapiens, Fig. 2g
Text: as §2, §3, §4, §1

Compound | IC50 [1] [nM] | IC50 [2] [nM] | IC50 [3] [nM] | IC50 [4] [nM] | IC50 [5] [nM] | IC50 [6] [nM] | IC50 ([7]; LAPC4, LAPC-4, Fig. 2g) [nM] | IC50 ([7]; LAPC4, 72 hours, Fig. 2a-f) [nM] | IC50 [8] [nM] | IC50 ([9]; PC3, 72 hours, Fig. 2a-f) [nM] | IC50 ([9]; PC3, Fig. 2g) [nM] | IC50 [10] [nM] | IC50 [11] [nM] | IC50 [12] [nM] | IC50 [13] [nM] | IC50 ([14]; 72 hours, Fig. 2a-f) [nM] | IC50 ([14]; Fig. 2g) [nM] | IC50 [15] [nM] | IC50 [16] [nM] | IC50 ([17]; 22rv1, 72 hours, Fig. 2a-f) [nM] | also measured
CC(C)OC(=O)/C=C\n1cnc(-c2cccc(Cl)c2)n1 [KPT-127] | 43 to 201 | 90 | 160 | 44 | 55 | 62 | 201 | 201 ± 15 | 55 | 59 ± 3 | 59 | 100 | 25 | 20 | 50 | 43 ± 4 | 43 | 1000 | 30 | 100 ± 10 | IC50 ([17]; 22rv1, Fig. 2g): 100 nM; IC50 [18]: 47 nM; IC50 ([19]; BPH-1, BPH1, Fig. 2g): > 1000 nM; IC50 ([19]; BPH-1, 72 hours, Fig. 2a-f): > 1000 nM; IC50 [20]: 800 nM; IC50 [21]: 100 nM
COc1cc(-c2ncn(/C=C\C(=O)OC(C)C)n2)cc(C(F)(F)F)c1 [KPT-185] | 180 to 700 | 330 | 230 | 215 | 177 | 233 | 321 | 321 ± 105 | 200 | 207 ± 44 | 207 | 270 | 179 | 200 | 240 | 268 ± 34 | 268 | 1000 | 260 | 189 ± 84 | IC50 ([17]; 22rv1, Fig. 2g): 160 nM; IC50 [18]: 143 nM; IC50 ([19]; BPH-1, BPH1, Fig. 2g): > 1000 nM; IC50 ([19]; BPH-1, 72 hours, Fig. 2a-f): > 1000 nM; IC50 [20]: 1000 nM; IC50 [21]: 400 nM
